# Laboratory results reported in patent US7728146B2, “Enzyme inhibitors” (Probiodrug AG, priority 2006, dated 2010).
# Tested on: male Sprague Dawley rats
# Assay: Tetradic encounter test
# Type: in vivo, rat
# Conditions: acute
# Experimental: Example 130b was dissolved in 0.5% Natrosol and administered acutely p.o. (gavage) 40 minutes before behavioural testing. Example 130b was administered in doses of 0.3, 1.0 and 3.0 mg/kg in a volume of 5 ml/kg, each.
# Chlordiazepoxide was dissolved in 0.9% NaCl and administered acutely i.p. 30 minutes before behavioural testing with a dose of 3 mg/kg in a volume of 1 ml/kg (test group TG 2, see below). The solution was prepared freshly every day.
# 216 male Sprague Dawley rats. The animals were 6 weeks old at the start of the study. They were housed in groups of 4 animals (“acute animals”) or in single cages (“chronic animals”) at 12 h/12 h light/dark (start of the light phase at 2 a.m.), 20° C., 60% rH. Animals were provided by Elevage Janvier, France.
# Animals were kept in group cages until compound administration. Each two animals derived from the same home cage and were treated the same way. During the time from compound administration to the beginning of the test, animals were kept in single cages for 40 minutes.
# The tetradic encounter test was conducted according to the protocol of Wolffgramm (1990). Four rats were placed for 15 minutes in an open field arena of 1 m×1 m; all four animals of an encounter group were treated in the same way, they received either test compound, reference compound, or vehicle. Each two animals were from the same home cage. The open field was illuminated by dim red light (3-4 Lux). Rats were familiar with the open field and their encounter partners by means of three prior training sessions (no compound administration). Testing (compound administration) started at 2:20 p.m. (dark phase). All animals were marked individually by means of black symbols on their back. Behaviour was recorded on videotapes. Each animal was tested once.
# Raw data were provided as videotapes and protocol sheets of application and test time. From the videotapes the trajectory of the animal's movement was tracked and coordinates and time stamps were continually noted in a data file. The resulting file was transferred to a computer program for further analysis.
# The following parameters were calculated for the whole test phase (15 minutes): • Total distance travelled (m) • Use of available space (%) • Portion of time spent in the centre (%) • Portion of time spent in the corners (%) • Mean distance to the encounter mates (cm) • Distribution of spatial distance to the encounter mates • Dynamics of spatial distance to the encounter mates (cross-distance course) Social Behaviour
# Raw data were provided as videotapes and protocol sheets of application and test time. From the videotapes the social behaviour of each rat was rated by an experienced ethologist using a list of predefined behavioural patterns. The observer was blind to the animal's treatment. The resulting file containing the time series of behavioural patterns was transferred to a computer program for further analysis.
# The following parameters were calculated for the whole test phase (15 minutes): • Number of non-agonistic social acts (N) • Number of aggressive acts (N) • Number of defensive acts (N) • Time spent with non-agonistic social acts (%) • Time spent with aggressive acts (%) • Time spent with defensive acts (%) • Behavioural synchrony
# To quantify inter-individual synchrony, coefficients of synchrony were calculated that base on rank correlation coefficients. For this purpose, the time series of behavioural patterns was subdivided into equidistant interval sections (here: 1 s intervals). To calculate synchrony coefficients, the user must define “pattern sets of interest”. Each set contained one or more behavioural patterns that were taken together for the analysis (e.g. “friendly contact” or “all kinds of social interaction”). […]
# [1] = vs vehicle, Chlordiazepoxide 3 mg/kg i.p., Example 130b low and high dose (0.3 and 3.0 mg/kg p.o.)
# [2] = vs vehicle, Example 130b high dose (3.0 mg/kg p.o.)
smiles,measurement,setting,value
"NCc1c(-c2ccc(Cl)cc2Cl)ncn1Cc1ccsc1 [Example 130b, (4-(2,4-dichlorophenyl)-1-((thiophen-3-yl)methyl)-1H-imidazol-5-yl)methanamine]",locomotor activity,"tetradic encounter, Chlordiazepoxide 3 mg/kg i.p., Example 130b 0.3-3.0 mg/kg p.o.",altered locomotor activity
same,inter-individual synchrony of behaviour,"vs vehicle, Chlordiazepoxide 3 mg/kg i.p., Example 130b 0.3, 1.0, 3.0 mg/kg p.o. (especially the high dose increased synchrony)",strong effects
same,distance to the encounter mates,[1],significantly higher distance
same,number of defensive acts,[1],statistically significant increase
same,time spent in a distance of 75-100 cm to encounter mates,"vs vehicle, Chlordiazepoxide 3 mg/kg i.p., Example 130b low and medium dose (0.3 and 1.0 mg/kg p.o.)",higher amount
same,time spent in a distance of 25-50 cm to encounter mates,"vs vehicle, Chlordiazepoxide 3 mg/kg i.p., Example 130b low dose (0.3 mg/kg p.o.)",significantly lower amount of time
same,time spent with friendly (non-agonistic) social behaviour,"vs vehicle, Chlordiazepoxide 3 mg/kg i.p., Example 130b medium dose (1.0 mg/kg p.o.)",tended to increase
same,time spent in a distance of 50-75 cm to encounter mates,[2],higher amount
same,time spent in a distance of less than 25 cm to encounter mates,[2],significantly lower amount of time
same,time spent in the centre of the open field,[2],significantly increased
same,usage of available space,[2],significantly increased
same,distance travelled during the first five minutes of the test,"vs vehicle, Example 130b low and high dose (0.3 and 3.0 mg/kg p.o.)",statistically significant increase
same,time spent in a distance of more than 100 cm to encounter mates,"vs vehicle, Example 130b low dose (0.3 mg/kg p.o.)",higher amount
